Reference: the supplement of paper PMC10307832

Key:
AZD5582 + Trametinib = compound: C[C@@H](C(=O)N[C@@H](C1CCCCC1)C(=O)N2CCC[C@H]2C(=O)N[C@@H]3[C@@H](CC4=CC=CC=C34)OCC#CC#CCO[C@@H]5CC6=CC=CC=C6[C@@H]5NC(=O)[C@@H]7CCCN7C(=O)[C@H](C8CCCCC8)NC(=O)[C@H](C)NC)NC [AZD5582] + CC(=O)Nc1cccc(-n2c(=O)n(C3CC3)c(=O)c3c(Nc4ccc(I)cc4F)n(C)c(=O)c(C)c32)c1 [Trametinib] (partner 0.02 µM); experiment: relative viability (nuclei count vs DMSO), 5 days (fraction); higher = more cells survive
In short: (§1)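 Values are medians from duplicate plates. Each reflects relative viability, defined as the nuclei count of treated wells over that of vehicle wells. Lung cancer cell lines in 1536-well plates were pin-tool dosed one day after seeding with one drug alone or with a fixed anchor-drug dose plus five library-drug doses (not always all listed) in √10 steps, then fixed, stained and imaged at 4× after 5 days.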

Temozolomide + Dasatinib = compound: Cn1nnc2c(C(N)=O)ncn2c1=O [Temozolomide] + Cc1nc(Nc2ncc(C(=O)Nc3c(C)cccc3Cl)s2)cc(N2CCN(CCO)CC2)n1 [Dasatinib] (partner 0.075 µM); experiment: as above
In short: as §1

Cell Line	relative viability (AZD5582 + Trametinib; first compound 0.001581 µM)	relative viability (AZD5582 + Trametinib; first compound 0.005 µM)	relative viability (AZD5582 + Trametinib; first compound 0.01581 µM)	relative viability (AZD5582 + Trametinib; first compound 0.05 µM)	relative viability (Temozolomide + Dasatinib; first compound 0.2 µM)	relative viability (Temozolomide + Dasatinib; first compound 0.6325 µM)	relative viability (Temozolomide + Dasatinib; first compound 2 µM)	relative viability (Temozolomide + Dasatinib; first compound 6.325 µM)	relative viability (Temozolomide + Dasatinib; first compound 20 µM)
201T	0.786	0.842	0.719	0.847	0.584	0.523	0.539	0.57	0.565
A-427	0.568	0.608	0.71	0.566	0.736	0.669	0.762	0.525	0.356
ABC-1					0.621	0.558	0.607	0.49	0.586
BEN	0.893	1.13	1.05	1.2	0.285	0.356	0.31	0.257	0.263
CAL-12T	0.31	0.34	0.291	0.216	0.444	0.455	0.427	0.381	0.346
COR-L23	0.485	0.75	0.584	0.523	0.635	0.516	0.542	0.461	0.6
COR-L 105	0.445	0.517	0.427	0.539	0.285	0.358	0.481	0.313	0.188
ChaGo-K-1	0.897	0.883	0.886	0.936	0.605	0.603	0.781	0.552	0.579
EKVX	0.276	0.405	0.289	0.376		0.575	0.55	0.782	0.352
EMC-BAC-2	0.757	0.841	0.737	0.797	0.336	0.368	0.368	0.316	0.325
EPLC-272H	0.15		0.292	0.0966	0.368	0.411	0.413	0.337	0.267
H3255	0.58	0.667	0.557	0.524		0.406	0.283	0.263	0.202
HARA	0.464	0.719	0.747	0.976	0.238	0.301	0.309	0.29	0.23
HCC-15	0.328	0.39	0.332	0.365	0.74	0.699	0.625	0.627	0.642
HCC-44	0.883	0.967	1.02	0.878					
HCC-78	0.735	0.813	0.712	0.534	0.363	0.456	0.418	0.391	0.365
HCC-366	0.304	0.339	0.413	0.458	0.661	0.688	0.655	0.682	0.652
HCC-827	0.538	0.611	0.515	0.589	0.256	0.343	0.299	0.326	0.149
HOP-62	0.407	0.456	0.418	0.446	0.744	0.759	0.73	0.609	0.711
LC-2-ad	0.92	1.04	0.942	1.04	0.628	0.662	0.836	0.471	0.472
LCLC-97TM1	0.203	0.25	0.184	0.189	0.76	0.807	0.934	0.813	0.803
LCLC-103H	0.702	0.813	0.643	0.828	0.524	0.567	0.548	0.565	0.471
LK-2	0.466	0.81	0.731	1.04	0.266	0.323	0.384	0.246	0.27
LOU-NH91	0.772	0.767	0.781	0.808	0.444	0.551	0.589	0.572	0.448
LU99A	0.575	0.68	0.534	0.617	0.589	0.489	0.6	0.524	0.548

Cell Line	relative viability (AZD5582 + Trametinib; first compound 0.001581 µM)	relative viability (AZD5582 + Trametinib; first compound 0.005 µM)	relative viability (AZD5582 + Trametinib; first compound 0.01581 µM)	relative viability (AZD5582 + Trametinib; first compound 0.05 µM)	relative viability (Temozolomide + Dasatinib; first compound 0.2 µM)	relative viability (Temozolomide + Dasatinib; first compound 0.6325 µM)	relative viability (Temozolomide + Dasatinib; first compound 2 µM)	relative viability (Temozolomide + Dasatinib; first compound 6.325 µM)	relative viability (Temozolomide + Dasatinib; first compound 20 µM)
LXF-289	0.641	0.647	0.654	0.726	0.27	0.228	0.192	0.18	0.252
NCI-H23	0.31	0.37	0.359	0.319	0.921	0.898	0.768	0.744	0.861
NCI-H322M	0.561	0.62	0.496	0.68		0.275	0.274	0.256	0.218
NCI-H358	0.156	0.157	0.142	0.147	0.13	0.151	0.17	0.142	0.135
NCI-H441	0.508	0.636	0.385	0.34	0.656	0.621	0.682	0.608	0.724
NCI-H460	0.118	0.243	0.144	0.221	0.525	0.547	0.556	0.417	0.486
NCI-H520	0.605	0.784	0.791	0.708	0.24	0.212	0.207	0.185	0.235
NCI-H522	0.628	0.777	0.724	0.747	0.877	0.729	0.932	0.703	0.935
NCI-H596	0.738		0.8	0.588	0.601	0.697	0.614	0.461	0.564
NCI-H647	0.417	0.477	0.443	0.47	0.206	0.22	0.303	0.117	0.111
NCI-H650	0.919	1.05	0.987	0.944	0.504	0.46	0.532	0.395	0.43
NCI-H661	0.524	0.697	0.589	0.648	0.781	0.953	0.962	0.762	0.706
NCI-H727	0.398	0.383	0.37	0.406	0.332	0.406	0.334	0.273	0.299
NCI-H838	0.493	0.582	0.405	0.498	0.28	0.253	0.426	0.311	0.281
NCI-H1355	0.396	0.444	0.452	0.409	0.713	0.732	0.828	0.699	0.818
NCI-H1395	0.961	1.22		1.28	0.429	0.393	0.491	0.402	0.392
NCI-H1437	0.43	0.572	0.461	0.573	0.388	0.438	0.45	0.4	0.393
NCI-H1563					0.454	0.481	0.453	0.366	0.447
NCI-H1623						0.555	0.455	0.474	0.355
NCI-H1648	0.38	0.511		0.412					
NCI-H1650	0.447	0.596	0.514	0.621	0.356	0.329	0.343	0.318	0.28
NCI-H1651	0.751	0.847	0.8	0.946	0.418	0.464	0.377	0.356	0.529
NCI-H1666	0.959	0.864	0.846	0.852	0.859	0.821	0.728	0.571	0.56
NCI-H1734	0.621	0.696	0.743	0.701	0.482	0.471	0.396	0.482	0.464
NCI-H1755	0.761	0.843	0.802	0.9	0.439	0.418	0.427	0.395	0.473

Cell Line	relative viability (AZD5582 + Trametinib; first compound 0.001581 µM)	relative viability (AZD5582 + Trametinib; first compound 0.005 µM)	relative viability (AZD5582 + Trametinib; first compound 0.01581 µM)	relative viability (AZD5582 + Trametinib; first compound 0.05 µM)	relative viability (Temozolomide + Dasatinib; first compound 0.2 µM)	relative viability (Temozolomide + Dasatinib; first compound 0.6325 µM)	relative viability (Temozolomide + Dasatinib; first compound 2 µM)	relative viability (Temozolomide + Dasatinib; first compound 6.325 µM)	relative viability (Temozolomide + Dasatinib; first compound 20 µM)
NCI-H1792	0.347	0.482	0.478	0.669	0.498	0.747	0.73	0.778	0.867
NCI-H1793	0.464	0.536	0.463	0.557		0.407	0.378	0.28	0.352
NCI-H1915	0.309	0.294	0.296	0.373	0.348	0.328	0.288	0.215	0.198
NCI-H1944	0.36	0.487	0.406	0.485	0.218	0.196	0.223	0.213	0.192
NCI-H1975	0.444	0.434	0.448	0.322	0.466	0.365	0.413	0.361	0.462
NCI-H1993	0.455	0.505	0.493	0.526	0.528	0.603	0.524	0.661	0.6
NCI-H2009	0.281	0.297	0.295	0.333	0.316	0.299	0.404	0.306	0.326
NCI-H2023	0.421	0.525	0.595	0.36	0.64	0.56	0.616	0.572	0.6
NCI-H2085	0.433	0.643	0.394	0.61	0.22	0.293	0.282	0.262	0.218
NCI-H2087	0.184	0.244	0.163	0.22	0.909	0.97	1.02	0.734	0.882
NCI-H2126	0.581	0.594	0.594	0.614	0.634	0.664	0.678	0.61	0.641
NCI-H2170	0.904	0.825	0.861	1.03		0.677	0.655	0.503	0.259
NCI-H2228	0.529	0.434	0.714	0.161	0.577	0.637	0.516	0.463	0.44
NCI-H2342	0.792	0.922	0.693	0.932	0.311	0.301	0.304	0.312	0.297
NCI-H2347	0.327	0.266	0.264	0.311	0.328	0.329	0.298	0.303	0.282
NCI-H2405	0.705	0.739	0.545	0.709	0.214	0.222	0.254	0.199	0.21
NCI-H3122	0.269	0.224	0.24	0.206	0.931	0.803	0.886	0.812	0.828
PC-3 [JPC-3]	0.668	0.627	0.696	0.486	0.825	0.987	1.07	1.02	0.438
PC-14	0.404	0.44	0.722	0.397	0.216	0.317	0.318	0.257	0.0365
RERF-LC-KJ	0.764	0.818	0.898	0.781	0.913	0.825	0.931	0.931	0.767
SK-LU-1	0.379	0.383	0.407	0.236	0.196	0.178	0.206	0.143	0.197
SK-MES-1	0.675	0.949	0.542	1	0.289	0.34	0.412	0.374	0.228
SW 900	0.634	0.865	0.758	0.615	0.644	0.561	0.381	0.541	0.553
